Results published in PMC7028811, “Biopharmaceutical Understanding of Excipient Variability on Drug Apparent Solubility Based on Drug Physicochemical Properties: Case Study—Hypromellose (HPMC)” (The AAPS Journal, 2020).
Converted amounts (≈) assume the structure as drawn. Read-outs that look alike come from different tables or passages of the source. Marks after values point to notes of the source that are not given here.

What was measured:
[1] = Shake-flask drug solubility in absence of excipient (reference solubility); assay type: physicochemical; details: for solubility at 0.5 h: 37 °C, read-out: Solubility of pure drug
Experimental: (§1) Compendial media (0.1 N HCl pH 1, phosphate buffer pH 6.8) were prepared according to the method described in the European Pharmacopoeia ([43]). Fasted State Simulated Gastric Fluid (FaSSGF) and Fasted State Simulated Intestinal Fluid (FaSSIF-V2) were prepared as described by Jantratid et al. ([44]).
(§2) Drug solubility studies in the absence and presence of excipient were performed in triplicate using the shake-flask method ([45]). Drug excess amount and 2% w/w or 5% w/w of each excipient were weighed and placed in centrifuge tubes. […] The physical mixtures were vortexed for 3 min. Five millilitres of each medium was added in the tubes and the samples were placed in a shaking water bath (37 °C, 200 strokes per minute (spm)). […] Filter adsorption studies were prior performed in triplicate for each drug. […] Filtered samples were further diluted (if needed) with the corresponding medium and analysed by HPLC (Supplementary Table I). Analytical procedures for drug quantification in the samples were modifications of already published methods. Drug quantification was made based on calibration curves. Standards were formulated from concentrated stock solutions consisting of drug dissolved in MeOH. As drug solubility can be influenced by the changes in the pH of solutions by presence of dissolved drug ([38]), the pH of samples after the completion of each experiment was measured. Drug solubility was calculated based on the sample drug concentration measured.

[2] = Relative effect (RE) of HPMC brands on drug apparent solubility, shake-flask with drug/excipient physical mixtures; assay type: physicochemical; details: FaSSIF-V2
Experimental: as §1
as §2, with “Standards were formulated from concentrated stock solutions consisting of drug dissolved in MeOH.” left out

[3] = cited from earlier work; for Solubility (BCS classification): based on the compound's BCS classification; for Lipophilicity (log P): experimental values
[4] = Theoretical % of drug ionized (Henderson-Hasselbalch equation at the pH of each medium); assay type: physicochemical

Compound | Solubility (BCS classification) [3] | Lipophilicity (log P) [3] | pKa [3] | other results
NC(=O)N1c2ccccc2C=Cc2ccccc21 [CBZ, carbamazepine] | Low ([30]) | 2.45 ([29]) |  | solubility at 0.5 h ([1]; pH 1.6, fassgf or other biorelevant, thermodynamic from solid, FaSSGF, 0.5 h): 387 µg/mL (≈ 1640 µM); solubility at 0.5 h ([1]; pH 6.5, thermodynamic from solid, FaSSIF-V2, 0.5 h): 307 µg/mL (≈ 1300 µM); Relative effect (RE) on drug apparent solubility ([2]; all the studied HPMC brands, 24 h): approximately 60%; pKa ([3]; ref DrugBank): Neutral (pKa=15)^a
OCCN(CCO)c1nc(N2CCCCC2)c2nc(N(CCO)CCO)nc(N3CCCCC3)c2n1 [DPL, dipyridamole] | Low ([38]) |  |  | Effect of HPMC presence on drug apparent solubility [2]: did not affect; % of drug ionized ([4]; FaSSIF-V2): 34%; % of drug ionized ([4]; phosphate buffer pH 6.8): 20.1%
CC(C)Cc1ccc(C(C)C(=O)O)cc1 (centres unmarked) [IBU, Ibuprofen] |  | 4.00 ([33]) |  | 
CCC(C)n1ncn(-c2ccc(N3CCN(c4ccc(OCC5COC(Cn6cncn6)(c6ccc(Cl)cc6Cl)O5)cc4)CC3)cc2)c1=O (centres unmarked) [ITZ, itraconazole] | Low ([40]) | 6.20 ([39]) | Weak base (pKa=4.5) ([39]) | solubility at 24 h ([1]; aqueous buffer, thermodynamic from solid, Phosphate buffer pH 6.8, 37 °C, mean ± SD, n = 3): < 0.015 µg/mL
CC(=O)Nc1ccc(O)cc1 [PRC, paracetamol] |  | 0.20 ([28]) | Neutral (pKa=9.38) ([28]) | 
